Experimental data published in PMC5847527, “Identification of a novel 2-oxindole fluorinated derivative as in vivo antitumor agent for prostate cancer acting via AMPK activation” (Scientific Reports, 2018).

Tests used:
AMPKα1 1–550 fragment = test: Activity on isolated AMPKα1 1–550 fragment; assay type: biochemical, human; settings: fragment containing the catalytic domain
Description: We also assayed the effect of compound 8c on a fragment of the α1 isoform (aa 1–550) that contains the catalytic domain.
(B) Activity of compound 8c on isolated AMPKα1 1–550 fragment. […] Data are the mean ± S.D. of four experiments. **p < 0.01 and ***p < 0.001 compared by the Student’s t-test.

[1] = Tolerability in PC-3 xenograft mice (weight, serum parameters, liver); assay type: in vivo; settings: 5 mg/Kg daily, 15 days
Excerpt: To validate the therapeutic value of the compound 8c against castration-resistant prostate cancer a murine xenograft model was employed. Due to the potent effect of compound 8c on the aggressive PC-3 cell line and in order to avoid unnecessary wasting of animals according to the 3 Rs guidelines (reduction, replacement, refinement) for the use of animals in research, we only use PC-3 cells for the in vivo studies. PC-3 tumors were induced in nude mice by subcutaneous injection of cells in the right flank of the mouse. When tumors reached a 70 mm^3 volume, mice were daily treated with 5 mg/Kg of compound 8c. In vehicle-treated mice, an increase in tumor growth volume was observed during the course of the study and at the end of experimentation (Fig. 8A).
Male immunodeficient nude-Foxn1 (nu/nu) mice (Envigo RMS, Barcelona, Spain), 4 to 6 week old, were used for all xenograft studies. […] Tumors were measured with external calipers and volume was calculated by the modified ellipsoidal formula as volume = length × (width)^2 × 0.52 mm^3 [52],[53]. At the end of the study, the mice were sacrificed by placing them in a CO2 gas-filled chamber, and the excised tumors were recovered and homogenized in lysis buffer for protein quantification and Western blotting. […]

PC-3 cells = test: Cell viability by MTT assay, PC-3; assay type: cell-based, human
Description: Figure 3 Comparison of the effect of 2-oxindole fluorinated derivatives on the proliferation of human prostate cancer cells. (A) Normal (PTN2 and RWPE-1) and cancer (PC3,DU145 and LNCaP) prostate cells were treated with different doses of the compounds for 24 hours and cell viability was monitored by MTT assay. […] (C) PC-3, DU145 and LNCaP cells were treated with 25 µM of compound 8c for different times. Values were normalized with the control and represent the mean ± SD of at least three independent experiments. *p < 0.05 and **p < 0.01 compared to control by the Student’s - test.
Human prostate cancer epithelial PC-3, DU145 and LNCaP and human prostate normal RWPE-1 cells were purchased from American Type Culture Collection (ATCC CRL-1435 CRL-1740 and CRL 11609 respectively) (Rockville, MD, USA). The human prostate normal PNT2 cell line was purchased to ECACC (European Collection of Cell cultures, Salisbury, SP4 0JG, UK). Cells were routinely grown in RPMI 1640 medium supplemented with 100 IU/ml penicillin G sodium, 100 µg/ml streptomycin sulfate, 0.25 µg/ml amphotericin B (Invitrogen, Paisley, UK) and 10% fetal calf serum. Cells were used at passages between 10–20. For treatment experiments, cells were plated and grown over night, the medium was then replaced with serum-free RPMI 1640 for 24 hours and then incubated with different doses of the compounds for the indicated times.
Cell viability was determined by 3-(4,5-dimethylthiazol-2-yl)-2,5-diphenyltetrazolium bromide (MTT) (Sigma-Aldrich) method. In brief, a total of 5000 cells/well were seeded into 12-well plate in a final volume of 1 mL. After treatments, 20 µl MTT solution (5 mg/ml in PBS) was added to the medium and cells were incubated at 37 °C for 4 h. Then, the supernatant was discarded and isopropanol was added to dissolve the formazan crystals. Treatments were carried out in triplicate. The optical density in each well was evaluated by measurement of absorbance at 490 and 650 nm using a microplate reader (ELX 800 Bio-Tek Intruments, INC). IC50 values were calculated using GraphPad Prism vs 6.0 (GraphPad Software, Inc, La Jolla, CA, USA). Cell viability was also determined by counting viable and dead cells by Trypan blue staining. Trypan blue positive and negative cells were counted using a Countess^TM automated cell counter (Invitrogen, Carlsbad, CA, USA). Results were expressed in relation to total number of cells counted.

[2] = test system: PTN2, RWPE-1, PC3, DU145 and LNCaP prostate cells; test: Cell viability by MTT assay, statements for the five cell lines together; assay type: cell-based, human
Description: We then study the effect of the compounds on the proliferative capacity of PC-3, DU145 and LNCaP prostate cells. We also used the prostate cell lines PTN2 and RWPE-1 which are derived from a histologically normal adult and therefore are considered as normal prostate cells, for comparison. All the compounds were tested at concentrations ranging from 1 to 100 μM.
(A) Normal (PTN2 and RWPE-1) and cancer (PC3,DU145 and LNCaP) prostate cells were treated with different doses of the compounds for 24 hours and cell viability was monitored by MTT assay. […] Values were normalized with the control and represent the mean ± SD of at least three independent experiments. *p < 0.05 and **p < 0.01 compared to control by the Student’s - test.
Human prostate cancer epithelial PC-3, DU145 and LNCaP and human prostate normal RWPE-1 cells were purchased from American Type Culture Collection (ATCC CRL-1435 CRL-1740 and CRL 11609 respectively) (Rockville, MD, USA). The human prostate normal PNT2 cell line was purchased to ECACC (European Collection of Cell cultures, Salisbury, SP4 0JG, UK). Cells were routinely grown in RPMI 1640 medium supplemented with 100 IU/ml penicillin G sodium, 100 µg/ml streptomycin sulfate, 0.25 µg/ml amphotericin B (Invitrogen, Paisley, UK) and 10% fetal calf serum. Cells were used at passages between 10–20. […]
Cell viability was determined by 3-(4,5-dimethylthiazol-2-yl)-2,5-diphenyltetrazolium bromide (MTT) (Sigma-Aldrich) method. […] The optical density in each well was evaluated by measurement of absorbance at 490 and 650 nm using a microplate reader (ELX 800 Bio-Tek Intruments, INC). IC50 values were calculated using GraphPad Prism vs 6.0 (GraphPad Software, Inc, La Jolla, CA, USA). Cell viability was also determined by counting viable and dead cells by Trypan blue staining. Trypan blue positive and negative cells were counted using a Countess^TM automated cell counter (Invitrogen, Carlsbad, CA, USA). Results were expressed in relation to total number of cells counted.

[3] = biological target: T1, human recombinant AMPK isoform α1β1γ1 (Homo sapiens, UniProt P54619+Q13131+Q9Y478); test: In vitro AMPK enzymatic assay (AMARA peptide, Delfia), α1β1γ1; assay type: biochemical; settings: 30 μM, p < 0.001
T1 construct: purchased Invitrogen
T1 sequence (Q13131 whole entry, canonical isoform): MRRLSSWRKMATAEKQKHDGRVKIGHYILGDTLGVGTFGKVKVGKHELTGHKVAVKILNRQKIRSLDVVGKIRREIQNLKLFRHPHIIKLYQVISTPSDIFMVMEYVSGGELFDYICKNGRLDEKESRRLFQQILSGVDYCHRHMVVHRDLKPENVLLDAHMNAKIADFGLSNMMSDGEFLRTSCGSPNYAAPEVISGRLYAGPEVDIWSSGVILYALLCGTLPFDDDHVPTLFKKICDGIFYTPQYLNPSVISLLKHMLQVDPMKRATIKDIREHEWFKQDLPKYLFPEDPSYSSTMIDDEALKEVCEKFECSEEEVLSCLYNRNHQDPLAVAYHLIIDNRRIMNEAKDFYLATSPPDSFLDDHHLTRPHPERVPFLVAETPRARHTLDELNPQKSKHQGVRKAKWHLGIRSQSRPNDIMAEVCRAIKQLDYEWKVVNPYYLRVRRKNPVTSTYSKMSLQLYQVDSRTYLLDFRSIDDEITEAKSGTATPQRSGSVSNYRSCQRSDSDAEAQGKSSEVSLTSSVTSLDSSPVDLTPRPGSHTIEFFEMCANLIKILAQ
T1 sequence (Q9Y478 whole entry, canonical isoform): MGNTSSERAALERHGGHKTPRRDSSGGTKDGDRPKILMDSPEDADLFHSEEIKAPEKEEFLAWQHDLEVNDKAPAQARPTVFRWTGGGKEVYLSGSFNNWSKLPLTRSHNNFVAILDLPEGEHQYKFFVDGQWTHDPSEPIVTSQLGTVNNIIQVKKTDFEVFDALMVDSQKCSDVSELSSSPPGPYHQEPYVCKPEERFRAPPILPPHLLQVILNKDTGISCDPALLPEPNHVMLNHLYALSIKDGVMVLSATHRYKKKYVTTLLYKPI
T1 sequence (P54619 whole entry, canonical isoform): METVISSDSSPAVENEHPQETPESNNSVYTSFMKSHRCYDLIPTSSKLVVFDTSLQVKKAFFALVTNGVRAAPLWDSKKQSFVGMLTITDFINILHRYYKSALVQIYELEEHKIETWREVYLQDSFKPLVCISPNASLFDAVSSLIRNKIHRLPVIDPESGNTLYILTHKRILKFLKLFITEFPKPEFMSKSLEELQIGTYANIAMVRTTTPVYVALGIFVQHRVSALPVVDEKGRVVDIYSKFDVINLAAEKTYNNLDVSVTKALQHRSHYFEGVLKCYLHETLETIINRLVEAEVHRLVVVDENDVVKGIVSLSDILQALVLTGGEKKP
Description: This assay evaluated the ability of the compound to activate AMPK and in turn phosphorylate the synthetic substrate peptide [sequence].
Data are the mean ± S.D. of four experiments. **p < 0.01 and ***p < 0.001 compared by the Student’s t-test.
The effect of compounds in the in vitro human recombinant AMPK activity assay was measured by monitoring phosphorylation of the “AMARA” peptide using Delfia technology. […] Final concentration of DMSO was 1%. Reactions were initiated by the addition of AMPK (0.1U). Following mixing, the plates were incubated for 30 min at room temperature. Enzyme activity was assayed by using an anti-phospho-serine antibody to measure the quantity of phosphate incorporated into the AMARAA peptide.

O=C1Nc2ccccc2C1(F)Cc1ccc(-c2ccccc2)o1 (centres unmarked) [Compound 8c, 3-fluoro-3-((5-phenylfuran-2-yl)methyl)indolin-2-one]
AMPK activity of α1 isoform fragment (aa 1–550) (AMPKα1 1–550 fragment): no change in AMPK activity
liver morphology [1]: Liver morphology was normal
mice weight or animal welfare [1]: No effect on mice weight or animal welfare
IC50 (PC-3 cells; Homo sapiens, PC-3, MTT, 24 hours): 18 µM
inhibitory efficacy on cells viability at 50 μM (PC-3 cells; PC-3, 50 μM): 84%
inhibition of cell viability at 100 µM ([2]; 100 µM): almost totally inhibited cell viability
inhibition of cell proliferation ([2]; 1–100 µM, dose-dependent, 24 hours): effectively inhibited cell proliferation
increase of AMPK α1β1γ1 activity [3]: 75%
